Data as given in publication PMC9274004, “Deciphering the Molecular Interaction Between the Adhesion G Protein-Coupled Receptor ADGRV1 and its PDZ-Containing Regulator PDZD7” (Frontiers in Molecular Biosciences, 2022).
Where no end group is shown, it is not given here.

Assays:
[1] = target: T1, PDZD7 PDZ1ext (81-192) (Mus musculus, UniProt E9Q9W7); assay: NMR titration of PDZ1ext with ADGRV1 ligands; format: binding, murine; conditions: NMR titration (1H-15N HSQC CSP), Tris HCl pH 7.5 (50 mM), 25°C; SD of Kd over at least ten shifting peaks; read-out: Kd
T1 construct: PDZ1 (81-167), PDZ1ext (81-192); GST (followed by TEV site) (N, cleaved yes); made in house; host or cells: E. coli BL21 DE3
T1 sequence (E9Q9W7 81-192): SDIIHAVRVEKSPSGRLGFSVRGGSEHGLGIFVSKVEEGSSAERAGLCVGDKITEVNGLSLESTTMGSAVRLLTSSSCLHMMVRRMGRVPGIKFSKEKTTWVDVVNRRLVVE
Method: (§1) All experiments were recorded at 25°C on a Bruker 800 MHz spectrometer equipped with a triple resonance ^1H{^13C/^15N} cryoprobe. The ^1H, ^15 N and ^13C backbone resonances assignment of PDZ1ext was carried out using 3D HNCA, HNCACB, HNCO, HNCOCA experiments (Tris HCl buffer adjusted to pH 6). The 2D ^1H-^15N HSQC spectra used to compare PDZ1, PDZ1ext, PDZ2 and PDZ2ext were recorded in Tris HCl pH 7.5 (50 mM). The 2D ^1H-^15N HSQC spectra used to compare PDZ1ext, PDZ2ext and P1P2 were recorded in Phosphate Buffer pH 6.5 (50 mM). Titration experiments of PDZ1 (WT), PDZ1ext (WT) and PDZ1ext (G103R) against ADGRV1pbm peptide were performed in Tris HCl pH 7.5 (50 mM). Averaged Chemical Shifts Perturbations (CSP) were calculated as: Δδavg = ((Δδ(^1H))^2+(Δδ(^15N)*0.159)^2)^½. […]
We monitored the interaction between PDZD7 constructs and a peptide (ADGRV1pbm) corresponding to the last 13 residues of ADGRV1, encompassing its PBM (sequence VELRRIPIADTHL-COOH; PBM underlined). We measured apparent Kd values of our constructs towards ADGRV1pbm using several biophysical methods (NMR, fluorescence, MicroScale Thermophoresis (MST)) (Table 1; Supplementary Figure S3–S5). […]

[2] = target: T2, PDZD7 PDZ1ext G103R (Mus musculus, UniProt E9Q9W7, G103R); assay: NMR titration of PDZ1ext G103R; format: binding, murine; conditions: Tris HCl pH 7.5 (50 mM), 25°C
T2 construct: PDZ1 (81-167), PDZ1ext (81-192); GST (followed by TEV site) (N, cleaved yes); made in house; host or cells: E. coli BL21 DE3
Method: as §1
We characterized the potential effect of the two substitutions on the interaction with ADGRV1pbm using a panel of techniques. First, we confirmed by NMR that PDZ1ext G103R is well-folded, with significant perturbations (CSPs >0.04 ppm) only detected for residues spatially close to the G103R mutation (Supplementary Figure S10). […] We calculated Rg = 28 Å and Dmax = 118.2 Å for the mutant tandem without ligand, and Rg = 27.7 Å and Dmax = 123.6 Å in presence of ADGRV1pbm peptide. […]

T2 sequence (E9Q9W7 81-192 G103R): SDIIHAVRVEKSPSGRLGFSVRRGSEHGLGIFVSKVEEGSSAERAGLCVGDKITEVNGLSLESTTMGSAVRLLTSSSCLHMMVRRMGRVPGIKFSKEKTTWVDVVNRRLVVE

VELRRIPIADTHL [ADGRV1pbm]
Kd [1]: 47 ± 6 µM
Kd [2]: 1190 µM
